Laboratory results taken from US4048007A, “Method of removing solvent residues from aqueous paper pulps” (The Dow Chemical Company, priority 1976, dated 1977).
Where two headings read alike, the source gives them in different places.

Columns and labels:
[1] = Henry's Law constant H of solvent in water; format: physicochemical; conditions: for Henry's Law constant, H: Table I; for Value of H: Table II
Procedure: In a first or single stage, the incoming gas contains no solvent, yo is 0 and Em = y/y*. y is determined by analyzing a sample of the off-gas and y* can be calculated from the total vapor pressure P, the mole fraction (x) of the solvent in the liquid leaving the stage and H, the Henry's Law constant. That is, y*P (the partial pressure of the solvent) is equal to Hx, or y* = Hx/P.
For an aqueous solution of a sparingly soluble chlorinated hydrocarbon (for which Henry's law holds reasonably well over the full range of solubility up to saturation), H can be determined from the solvent solubility (c) in water and the vapor pressure (po) of the pure solvent, at a particular temperature; i.e., H = po /C. solubilities, vapor pressures and H values, at 20° C., are given below for three chlorinated hydrocarbon solvents.
The effect on H of operating at temperatures somewhat above or below […] is indicated in the following tabulation: […]

[2] = Air stripping of solvent from water (no fibers), time to strip 90% (Example 4); format: physicochemical; conditions: 200 ml water, 5 g solvent, air stripped as in Example 2 (20° C., 2 cubic feet per minute)
Procedure: In a single tray apparatus similar to that in Example 1, air at 20° C. was passed at a rate of 2 cubic feet per minute through 200 ml. batches of various consistency aqueous Kraft pulps containing initially 1% by volume (2.0 ml, or […]) of dispersed perchloroethylene, C2 Cl4, which is very sparingly soluble in water (150 ppm). After 3 minutes, the residual weight of C2 Cl4 found was:
200 ml. batches of water (no fibers) containing 5 g. of solvent were stripped with air as in Example 2. The time required to strip 90% of the solvent was measured: […]

[3] = cited from earlier work
[4] = cited from earlier work; for Vapor Pressure of pure solvent: 20° C., Table I; for Vapor Pressure at 20° C.: Example 4
[5] = Dissolved solvent found in 0.5% Kraft pulp prepared with solvent-saturated water (Example 5); format: physicochemical; conditions: 0.5% consistency Kraft pulp, water previously saturated with perchloroethylene
Procedure: A 0.5% consistency Kraft pulp suspension was prepared with water previously saturated with perchloroethylene.

SMILES | Henry's Law constant, H ([1]; 20° C.) [mm Hg/ppm] | Time Required to strip out 90% [2] [s] | Solubility in water ([3]; 20° C., Table I) | Vapor Pressure of pure solvent [4] [mm Hg] | Vapor Pressure at 20° C. [4] [mm Hg] | Value of H ([1]; 15° C.) [mm Hg/ppm] | Value of H ([1]; 20° C.) [mm Hg/ppm] | Value of H ([1]; 25° C.) [mm Hg/ppm] | dissolved C2 Cl4 content of suspension [5] [ppm] | Solubility in water ([3]; Example 2, very sparingly soluble in water) [ppm]
CC(Cl)(Cl)Cl [1,1,1-Trichloroethane] | 0.1429 | 32 | 700 ppm | 100 | 100 |  |  |  |  | 
ClCCl [Methylene Chlorine] | 0.0241 | 9 | 13,900 ppm |  | 340 | 0.0183 | 0.0241 | 0.0321 |  | 
ClC(Cl)=C(Cl)Cl [Perchloroethylene, perchloroethylene] | 0.1000 | 125 | 147 ppm | 14.7 | 15 | 0.0760 | 0.1000 | 0.1267 | 176 | 150
